Results reported in US6254899A, “Plant extract compositions, method of preparation, and pharmaceutical compositions containing them” (Laboratoires Remilea, priority 1999, dated 2001).

How the values were obtained:
[1] = Test of anti-inflammatory activity: carragheenin-induced podal edema in rats; assay type: in vivo, rat (Ico male and female, Sprague Dawley)
Method: 1. Test of Anti-inflammatory Activity
Podal edema induced by carragheenin is used to evaulate the anti-inflammatory activity of the products tested.
The products were tested on Ico male rats and female rats (Sprague Dawley) of approximately 250 g provided by the company IFFA-CREDO.
The products tested were suspended in the hydroxypropyl methyl cellulose (HPMC).
A volume of 5 ml per kg of body weight was administered to the animals by oral route according to the protocol detained in the table below.
Batch Salix Tanacetum Copper Quantity Volume
no. alba parthenium gluconate of excipient administered
Batch / 900 mg / 15.0 ml) 5 ml/kg
The control animals received either the placebo (T+), i.e. solely the HPMC, or indomethacin (T-) by oral route.
The treatment took place two hours before the experiment. One hour after oral administration of the product to be tested, all the animals received 0.2 ml of a 2% solution of carragheenin (Satia) in a 0.9% solution of sodium chloride at by injection in the right back paw (T0).
The podal volume of each rat was measured using a plethysmometer. The podal edema of each animal was measured at times T0, T0 +60 minutes, T0 +120 minutes, T0 +240 minutes.
The results were expressed in average percentages of inflammation relative to the control values (T^+) before the treatment and at each of the measuring times as well as in the percentage reduction of the edema compared to a control before the treatment and against each of the measuring times.

[2] = Test of analgesic activity: phenyl benzoquinone (PBQ) induced abdominal cramps in mice; assay type: in vivo, mice (male); conditions: aspirin 100 mg/kg
Method: 50 male mice of 20-24 g supplied by the company IFFA-CREDO (France) were divided into 5 batches. The products studied were administered: by oral route thirty minutes before injection of phenyl benzoquinone (PBQ): (PBQ 20 mg+alcohol 5 ml+water qsp 100 ml). by intraperitoneal route at the rate of 0.20 ml per mouse.
The products to be tested were suspended in the excipient HPMC (hydroxypropyl cellulose methyl).
The animals were treated as below: […]
4. Tanacetum parthenium 150 10 […]
Aspirin was used as the reference analgesic product.
PBQ induces abdominal cramps indicating the intensity of the pain. The number of cramps per mouse was measured 1 hr and 2 hrs after administration of the product tested (30 mn and 1 hr 30 minutes after injection of PBQ).
The results were expressed as the percentage: […]
Number of cramps of the control batch - number of cramps of
Number of cramps of the control batch

SMILES	% change of inflammation compared with the control (T+), 1 hour ([1]; 1 hour, "-" reduction, "+" increase in inflammation) [%]	% change of inflammation compared with the control (T+), 2 hours ([1]; 2 hours, "-" reduction, "+" increase in inflammation) [%]	% change of inflammation compared with the control (T+), 4 hours ([1]; 4 hours, "-" reduction, "+" increase in inflammation) [%]	% inflammation after 1 hour ([1]; oral, 5 ml/kg, 1 hour) [%]	% inflammation after 2 hours ([1]; oral, 5 ml/kg, 2 hours) [%]	% inflammation after 4 hours ([1]; oral, 5 ml/kg, 4 hours) [%]	Reduction of number of abdominal cramps, 1 hr ([2]; 60 mins after administration, Salix alba 150 mg/kg) [%]	Reduction of number of abdominal cramps, 2 hrs ([2]; 120 mins after administration, Salix alba or Tanacetum parthenium 150 mg/kg) [%]
COc1ccc2c(c1)c(CC(=O)O)c(C)n2C(=O)c1ccc(Cl)cc1 [Indomethacin]	-16.74	-36.7	-50.38	38.34	51.85	71.38	–	–
CC(=O)Oc1ccccc1C(=O)O [aspirin]	–	–	–	–	–	–	33	55
